Patent US10351522B2, “Sulfonamide derivative and pharmaceutically acceptable acid addition salt thereof” (UNIVERSITY OF TSUKUBA, priority 2015, dated 2019)

Assays:
human OX2R = biological target: T1, human OX2R (Homo sapiens, UniProt O43614); assay: Agonist activity against OX2R: intracellular calcium (Fura-2AM, FDSS7000) in CHOOX2R cells; assay type: cell-based; conditions: relative to orexin-A as full agonist (100%)
T1 construct: expressed in transfected cells; host or cells: CHO (Chinese hamster ovary) cells, line CHOOX2R, co-expressing NFAT-luciferase
T1 sequence (O43614 1-444): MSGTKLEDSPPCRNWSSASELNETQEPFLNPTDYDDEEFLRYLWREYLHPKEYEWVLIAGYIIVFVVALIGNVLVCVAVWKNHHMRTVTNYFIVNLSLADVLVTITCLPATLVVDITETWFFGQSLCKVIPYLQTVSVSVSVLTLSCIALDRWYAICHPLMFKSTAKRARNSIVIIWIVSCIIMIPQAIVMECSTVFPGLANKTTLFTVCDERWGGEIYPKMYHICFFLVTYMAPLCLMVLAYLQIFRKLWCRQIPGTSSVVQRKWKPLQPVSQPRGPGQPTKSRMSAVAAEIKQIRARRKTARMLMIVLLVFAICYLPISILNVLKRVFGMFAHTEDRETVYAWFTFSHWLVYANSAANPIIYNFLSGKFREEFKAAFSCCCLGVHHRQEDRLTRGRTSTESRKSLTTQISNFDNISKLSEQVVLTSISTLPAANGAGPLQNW
Procedure: (§1) Evaluation of Agonist Activity Against OX1R and OX2R
(§2) NAFT-luciferase gene and human OX1R gene were constitutively expressed in CHO cell, which is a cell line derived from Chinese hamster ovary to establish a cell line (CHOOX1R) and NAFT-luciferase gene and human OX2R gene were constitutively expressed in CHO cell to establish a cell line (CHOOX2R). The respective cells were seeded in a 96-well Multiplate at 10,000 cells/well and cultured in a 5% FBS (Thermo Scientific)-added DMEM medium (Sigma-Aldrich) for 48 hr. The medium was removed, an assay buffer (20 mM HEPES (Sigma-Aldrich), Hanks' balanced salt solution (Gibco), 0.1% BSA (Sigma-Aldrich), 2.5 mM probenecid acid (Wako Pure Chemical Industries, Ltd.)) (100 μL) containing 5 μM Fura-2AM (Cayman Chemical) was added, and the cells were incubated for 60 min. The buffer containing Fura-2AM was removed, and an assay buffer (75 μL) was added. An assay buffer (25 μL) containing a test compound was added thereto to start the reaction. Changes in the intracellular calcium ion concentration due to the reaction were measured by measuring the fluorescence intensity ratio by dual wavelength excitation at 340 and 380 nm, by using FDSS7000 (Hamamatsu Photonics K.K.). The test compound was dissolved in DMSO to 10 mM, and diluted with the assay buffer to a final concentration of 10^−7M to 10^−5M (final concentration of DMSO 1%).
(§3) (As used herein, Response in Table 21 to Table 27 is a value obtained by dividing the agonist activity value, when the test compound is evaluated with orexin-A as a full-agonist (maximum value of agonist activity: 100%), at 10 μM, 1.0 μM, 0.1 μM by the agonist activity value of orexin-A.)

human OX1R = biological target: T2, human OX1R (Homo sapiens, UniProt O43613); assay: Agonist activity against OX1R: intracellular calcium (Fura-2AM, FDSS7000) in CHOOX1R cells; assay type: cell-based; conditions: relative to orexin-A as full agonist (100%)
T2 construct: expressed in transfected cells; host or cells: CHO (Chinese hamster ovary) cells, line CHOOX1R, co-expressing NFAT-luciferase
T2 sequence (O43613 1-425): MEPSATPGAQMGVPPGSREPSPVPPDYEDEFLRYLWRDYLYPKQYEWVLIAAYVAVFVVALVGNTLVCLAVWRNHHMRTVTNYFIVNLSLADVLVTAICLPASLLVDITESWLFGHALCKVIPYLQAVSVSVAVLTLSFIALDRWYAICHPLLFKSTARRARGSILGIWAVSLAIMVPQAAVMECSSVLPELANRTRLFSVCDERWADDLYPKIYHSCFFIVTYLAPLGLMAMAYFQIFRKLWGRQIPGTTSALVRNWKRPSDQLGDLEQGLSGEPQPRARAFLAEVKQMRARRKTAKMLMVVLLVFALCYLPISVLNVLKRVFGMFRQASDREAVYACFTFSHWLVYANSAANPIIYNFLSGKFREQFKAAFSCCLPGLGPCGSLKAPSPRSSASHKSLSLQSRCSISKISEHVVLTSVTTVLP
Procedure: as §1, §2, §3

| SMILES | Response (%) OX2R (human OX2R; 0.1 μM test compound) [%] | Response (%) OX2R (human OX2R; 1.0 μM test compound) [%] | Response (%) OX2R (human OX2R; 10 μM test compound) [%] | Emax at 0.1 µM (human OX1R; 0.1 μM test compound, read-out: Response (%) OX1R) [%] | Emax at 1 µM (human OX1R; 1.0 μM test compound, read-out: Response (%) OX1R) [%] | Emax at 10 µM (human OX1R; 10 μM test compound, read-out: Response (%) OX1R) [%] | Response (%) OX1R (human OX1R; 0.1 μM test compound) [%] | Response (%) OX1R (human OX1R; 1.0 μM test compound) [%] | Response (%) OX1R (human OX1R; 10 μM test compound) [%] |
| --- | --- | --- | --- | --- | --- | --- | --- | --- | --- |
| COc1ccc(-c2cccc(C(=O)N(C)C)c2)cc1S(=O)(=O)Nc1cccc(NC(=O)Nc2ccccc2)c1 [Example 37, 4′-methoxy-N,N-dimethyl-3′-(N-(3-(3-phenylureido)phenyl)sulfamoyl)-[1,1′-biphenyl]-3-carboxamide] | 55 | 88 | 81 | < 5 | < 5 | < 5 | – | – | – |
| COc1ccc(-c2cccc(C(=O)N(C)C)c2)cc1S(=O)(=O)Nc1cccc(NC(=O)Nc2cccc(C)c2)c1 [Example 38] | 68 | 82 | 71 | – | – | – | <5 | <5 | <5 |
| COc1ccc(-c2cccc(C(=O)N(C)C)c2)cc1S(=O)(=O)Nc1cccc(NC(=O)Nc2ccc(N(C)C)cc2)c1 [Example 39] | 73 | 59 | 53 | – | – | – | <5 | <5 | 32 |
| COc1ccc(-c2cccc(C(=O)N(C)C)c2)cc1S(=O)(=O)Nc1cccc(NC(=O)Nc2ccccc2N(C)C)c1 [Example 41] | 17 | 93 | 102 | – | – | – | <5 | <5 | <5 |
| COc1ccc(-c2cccc(C(=O)N(C)C)c2)cc1S(=O)(=O)Nc1cccc(NC(=O)Nc2ccc(Br)cc2)c1 [Example 42] | 93 | 109 | 95 | – | – | – | <5 | <5 | <5 |
| COc1ccc(-c2cccc(C(=O)N(C)C)c2)cc1S(=O)(=O)Nc1cccc(NC(=O)Nc2ccccc2Br)c1 [Example 43] | 102 | 105 | 104 | – | – | – | <5 | <5 | 10 |
| COc1cccc(NC(=O)Nc2cccc(NS(=O)(=O)c3cc(-c4cccc(C(=O)N(C)C)c4)ccc3OC)c2)c1 [Example 44] | 100 | 104 | 95 | – | – | – | <5 | <5 | 10 |
| COC(=O)c1cccc(NC(=O)Nc2cccc(NS(=O)(=O)c3cc(-c4cccc(C(=O)N(C)C)c4)ccc3OC)c2)c1 [Example 45] | 82 | 97 | 100 | – | – | – | <5 | <5 | <5 |
| COc1ccc(-c2cccc(C(=O)N(C)C)c2)cc1S(=O)(=O)Nc1cccc(NC(=O)Nc2ccccc2[N+](=O)[O-])c1 [Example 46] | 74 | 101 | 115 | – | – | – | <5 | <5 | 8 |
| COc1ccc(-c2cccc(C(=O)N(C)C)c2)cc1S(=O)(=O)Nc1cccc(NC(=O)Nc2cc([N+](=O)[O-])cc([N+](=O)[O-])c2)c1 [Example 47] | 7 | 81 | 102 | – | – | – | <5 | <5 | <5 |
| COc1ccc(-c2cccc(C(=O)N(C)C)c2)cc1S(=O)(=O)Nc1cccc(NC(=O)Nc2cccc(C(=O)O)c2)c1 [Example 48] | <5 | <5 | 14 | – | – | – | <5 | <5 | <5 |
| COc1ccc(-c2cccc(C(=O)N(C)C)c2)cc1S(=O)(=O)Nc1cccc(NC(=O)Nc2cccc(C(=O)N(C)C)c2)c1 [Example 49] | 26 | 89 | 92 | – | – | – | <5 | <5 | <5 |
| COc1ccc(-c2cccc(C(=O)N(C)C)c2)cc1S(=O)(=O)Nc1cccc(NC(=O)Nc2cccc(Br)c2)c1 [Example 50] | 100 | 94 | 97 | – | – | – | <5 | <5 | <5 |
| COc1ccc(-c2cccc(C(=O)N(C)C)c2)cc1S(=O)(=O)Nc1cccc(NC(=O)Nc2ccccc2C)c1 [Example 51] | 93 | 85 | 88 | – | – | – | <5 | 36 | 67 |
| COc1ccccc1NC(=O)Nc1cccc(NS(=O)(=O)c2cc(-c3cccc(C(=O)N(C)C)c3)ccc2OC)c1 [Example 52] | 43 | 81 | 78 | – | – | – | <5 | <6 | <7 |
| COc1ccc(NC(=O)Nc2cccc(NS(=O)(=O)c3cc(-c4cccc(C(=O)N(C)C)c4)ccc3OC)c2)cc1 [Example 53] | 98 | 95 | 100 | – | – | – | <8 | 6 | 26 |
| COc1ccc(-c2cccc(C(=O)N(C)C)c2)cc1S(=O)(=O)Nc1cccc(NC(=O)Nc2cc(OC)c(OC)c(OC)c2)c1 [Example 54] | 91 | 71 | 61 | – | – | – | <5 | <5 | 10 |
